Tests used:
Experiment in all cases: cell viability (% survival relative to DMSO control, bortezomib = 0%); higher = less cytotoxic
Settings in all cases: 72 h
LAMA-84 = system: LAMA-84
Outline: (§1)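 Seeding density for each of the 10 AML and 5 CML cell lines was titrated to the linear growth range. Cells went into 384-well plates pre-printed in duplicate with compounds at 1, 10, 100, 1000 or 10000 nM and were held for 72 h at 37 °C with 5% CO2. CellTiter-Glo luminescence then provided the readout. Percent survival is expressed relative to vehicle at 100% and a 10 µM positive control at 0%, averaged over duplicates.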

MOLM-13 = system: MOLM-13
Outline: as §1

Mono-Mac-6 = system: Mono-Mac-6
Outline: as §1

SHI-1 = system: SHI-1
Outline: as §1

Row | Structure (SMILES) | cell viability (LAMA-84; 1 nM) [%] | cell viability (LAMA-84; 10 nM) [%] | cell viability (LAMA-84; 100 nM) [%] | cell viability (LAMA-84; 1000 nM) [%] | cell viability (LAMA-84; 10000 nM) [%] | cell viability (MOLM-13; 1 nM) [%] | cell viability (MOLM-13; 10 nM) [%] | cell viability (MOLM-13; 100 nM) [%] | cell viability (MOLM-13; 1000 nM) [%] | cell viability (MOLM-13; 10000 nM) [%] | cell viability (Mono-Mac-6; 1 nM) [%] | cell viability (Mono-Mac-6; 10 nM) [%] | cell viability (Mono-Mac-6; 100 nM) [%] | cell viability (Mono-Mac-6; 1000 nM) [%] | cell viability (Mono-Mac-6; 10000 nM) [%] | cell viability (SHI-1; 1 nM) [%] | cell viability (SHI-1; 10 nM) [%] | cell viability (SHI-1; 100 nM) [%] | cell viability (SHI-1; 1000 nM) [%] | cell viability (SHI-1; 10000 nM) [%]
1 | CCOC(=O)[C@H]1O[C@@H]1C(=O)N[C@@H](CC(C)C)C(=O)NCCC(C)C [Aloxistatin] | 93.7 | 101 | 101 | 101 | 98.6 | 102 | 109 | 116 | 96.1 | 62.8 | 97.3 | 108 | 104 | 89 | 81.7 | 102 | 92.6 | 104 | 102 | 92.5
2 | N[C@](CCCCB(O)O)(CCN1CCCCC1)C(=O)O [Arginase inhibitor 1] | 99.9 | 102 | 96.1 | 102 | 88.9 | 106 | 99.8 | 117 | 74.4 | 72 | 101 | 83.8 | 93.1 | 93.8 | 94.5 | 92 | 105 | 90.1 | 110 | 92.8
3 | Cc1noc2c1-c1ccccc1C(c1ccc(Cl)cc1)=N[C@H]2CC(N)=O [CPI-0610] | 107 | 92.3 | 98.4 | 67.2 | 33.6 | 74.3 | 88.2 | 73.5 | 5.96 | 3.86 | 99.7 | 89.3 | 65.7 | 17 | 15.9 | 105 | 94.5 | 88.8 | 44.4 | 21.8
4 | Nc1ccn([C@@H]2O[C@H](CO)[C@@H](O)[C@@H]2O)c(=O)n1 [Cytarabine] | 93 | 80.3 | 38.5 | 12.9 | 5 | 112 | 86.4 | 45.7 | 4.2 | 0.262 | 95.1 | 86.4 | 79.8 | 19.1 | 3.49 | 102 | 92.6 | 58 | 14.6 | 2.46
5 | CCOc1ccc(Cc2cc([C@@H]3O[C@H](CO)[C@@H](O)[C@H](O)[C@H]3O)ccc2Cl)cc1 [Dapagliflozin] | 98.1 | 111 | 89.7 | 97.7 | 90.5 | 92.8 | 111 | 91.1 | 103 | 121 | 91.5 | 95.1 | 87.5 | 91.7 | 88.8 | 99.4 | 114 | 85.2 | 91.1 | 107
6 | CCN(CC)CCN(Cc1ccc(-c2ccc(C(F)(F)F)cc2)cc1)C(=O)Cn1c(SCc2ccc(F)cc2)nc(=O)c2c1CCC2 [Darapladib] | 101 | 83.5 | 99.7 | 80.6 | -0.44 | 123 | 94.6 | 88.2 | 83.8 | -0.315 | 97 | 90.9 | 101 | 93.3 | -0.318 | 107 | 107 | 97.4 | 90.6 | -0.412
7 | O=C(O)C(Cl)Cl [Dichloroacetate] | 101 | 100 | 98 | 101 | 99.3 | 95.9 | 99.5 | 97.7 | 89.4 | 102 | 92.4 | 92.4 | 113 | 98.8 | 102 | 99.7 | 104 | 96.8 | 101 | 103
8 | O=C1Oc2ccccc2C(=O)C1CC1C(=O)Oc2ccccc2C1=O (stereo not given) [Dicumarol] | 97.3 | 107 | 95.5 | 103 | 105 | 105 | 109 | 107 | 120 | 97.1 | 103 | 111 | 86.5 | 95.7 | 106 | 95.8 | 105 | 104 | 106 | 105
9 | CC12CCC(O)CC1CCC1C2CCC2(C)C(C3=CC(=O)OC3)CCC12O (stereo not given) [Digitoxigenin] | 109 | 105 | 84.6 | 6.05 | 0.855 | 68.7 | 116 | 54.5 | 0.802 | -1.32 | 111 | 89.6 | 83 | 1.4 | -1.27 | 108 | 108 | 103 | 4.47 | -0.733
10 | C[C@H]1O[C@@H](O[C@H]2[C@@H](O)C[C@H](O[C@H]3[C@@H](O)C[C@H](O[C@H]4CC[C@@]5(C)[C@H](CC[C@@H]6[C@@H]5C[C@@H](O)[C@]5(C)[C@@H](C7=CC(=O)OC7)CC[C@]65O)C4)O[C@@H]3C)O[C@@H]2C)C[C@H](O)[C@@H]1O [Digoxin] | 92.3 | 115 | 20.6 | 2.17 | 2.06 | 105 | 105 | 0.137 | -0.695 | 0.435 | 94.6 | 100 | 13 | -0.503 | -0.351 | 115 | 94.9 | 17.8 | 0.649 | 0.63
11 | O=c1c2ccccc2[se]n1-c1ccccc1 [Ebselen] | 93.3 | 97.1 | 95.5 | 92.1 | 101 | 104 | 97.9 | 108 | 92.5 | 115 | 99.1 | 93.8 | 103 | 98.1 | 84.6 | 107 | 96.5 | 106 | 92.6 | 88.6
12 | Clc1ccc(COC(Cn2ccnc2)c2ccc(Cl)cc2Cl)cc1 (stereo not given) [Econazole] | 103 | 95.5 | 91.8 | 92 | 58.1 | 79.3 | 140 | 84.8 | 58.7 | 29.2 | 102 | 92.1 | 86.7 | 78.4 | 58.8 | 112 | 91 | 98.8 | 87.2 | 62.1
13 | C#Cc1cnc(O)nc1O [Eniluracil] | 100 | 102 | 107 | 109 | 104 | 75.5 | 108 | 114 | 91.4 | 104 | 104 | 125 | 105 | 106 | 97.4 | 97.7 | 106 | 114 | 103 | 102

— the supplement of paper PMC8671470
